Assay results taken from US20220204971A1, “Compositions and Methods for Inhibiting Cancers and Viruses” (Icahn School of Medicine at Mount Sinai, priority 2018, published 2022).

Legend:
HCMV (TB40-epi) = test: HCMV infectious particle yield from LNA-transfected ARPE-19 epithelial cells, PFU/ml; format: cell-based; settings: ARPE-19, PFU/ml; 96 hpi
Protocol: FIG. 26 discloses the effect of HSATII knockdown using four different HSAT-II LNAs on the production of HCMV infectious particles from human retinal pigment cells. Media samples were collected at 96 hpi from ARPE-19 cells transfected with NT-LNA or different HSATII-LNAs 24 h before HCMV (TB40-epi) infection at 1 TCID50/cell. PFU/ml values were determined. Data were averaged from at least three independent experiments and are presented as a mean (SD). Unpaired, two-tailed t-test was used to measure significance. One, two, three or four asterisks represent p<0.05, p<0.01, p<0.001 or p<0.0001, respectively.
Media samples were collected at 96 hpi from ARPE-19 cells transfected with NT-LNA or different HSATII-LNAs 24 h before HCMV (TB40-epi) infection at 1 TCID50/cell. PFU/ml values were determined. Data were averaged from at least three independent experiments and are presented as a mean (SD). […] Cells treated with the combined HSATII-LNA #1 and HSATII-LNA #2 produced only ˜0.6% of intracellular and ˜1% extracellular HCMV viral particles produced by control cells treated with NT-LNA. To compare, cells treated with HSATII-LNA #1 produced ˜33% of intracellular and ˜6% of extracellular HCMV viral particles produced by control cells treated with NT-LNA. Cells treated with HSATII-LNA #2 produced 23% of intracellular and 6% of extracellular HCMV viral particles produced by control cells treated with NT-LNA. Unpaired, two-tailed t-test was used to measure significance. One, two, three or four asterisks represent p<0.05, p<0.01, p<0.001 or p<0.0001, respectively.
Locked nucleic acid oligonucleotides were designed to target identified, highly abundant HSATII transcripts from different chromosomal loci. […] Cells were collected at the indicated time post infection using QIAzol buffer (QIAGEN, Hilden, Germany) and stored at −80° C. until sample processing.

HSATII = HSATII RNA RT-qPCR in HCMV-infected HFFs treated with CHX or GCV; format: cell-based, human; settings: for HSATII levels: HFFs, HCMV 1 TCID50/cell, GCV added after 2 h
Protocol: FIGS. 2a-d disclose HSATII induction levels in cells infected with active virus as compared to UV-irradiated virus. a HFFs were infected with untreated or UV-irradiated HCMV (TB40/E-GFP) at 3 TCID50/cell, RNA samples were collected at specified times. b HFFs were treated with CHX or DMSO, as a solvent control, 24 h before HCMV (TB40/E-GFP) infection at 1 TCID50/cell. RNA samples were collected at 24 hpi. c HFFs were infected with HCMV (TB40/E-GFP) at 1 TCID50/cell for 2 h and then media was changed for one containing GCV or DMSO as a solvent control. RNA samples were collected at 24 and 48 hpi. d Tetracycline-inducible […] and/or IE2 MRC-5 and ARPE-19 cells were treated with doxycycline. RNA samples were collected at indicated times. a-d RT-qPCR was performed using HSATII-specific primers. GAPDH was used as an internal control. n=3. Data are presented as a fold change mean±SD. a-c ***P<0.001, ****P<0.0001 by the unpaired, two-tailed t-test with (b, c) or without (a) Welch's correction. ns—not significant. Open circles represent single data points.
(§1) Cyclohexamide (Sigma-Aldrich) and ganciclovir (Sigma-Aldrich) were dissolved in DMSO and used at 100 μg ml^−1 or 50 1.1M concentrations, respectively. Doxycycline (Sigma-Aldrich) was dissolved in water and used at 2 μg ml^−1. Puromycin was dissolved in water and used at 1.5 1.1 g ml^−1 (MRC-5) or 21.1 g ml^−1 (ARPE-19). G418 was dissolved in water and used at 800 μg ml-1 (MRC-5) or 1 mg ml-1 G418 (ARPE-19).
(§2) For quantitative reverse transcription PCR (qRT-PCR) analysis, cells were collected in QIAzol Lysis Reagent (Qiagen). To fractionate RNA, DNA and proteins chloroform was added; samples were spun at 12,000×g for 15 min. at 4° C. […] Quantitative PCR (qPCR) was performed using SYBR Green master mix (Applied Biosystems by Thermo Fisher Scientific, Foster City, Calif.) on the QuantStudio 6 Flex-Real Time PCR System (Applied Biosystems by Thermo Fisher Scientific). […]
(§3) Transcript levels were analyzed using the […] method and GAPDH or B2M were used as an internal control. […]

UL99 = UL99 late gene RNA RT-qPCR in HCMV-infected HFFs treated with GCV; format: cell-based; settings: HCMV 1 TCID50/cell, 48 hpi
Protocol: FIG. 12 discloses the accumulation of UL99 gene RNA in the presence of DMSO or GCV in infected cells. HFFs were infected with HCMV (TB40/E-GFP; 1 TCID50/cell) for 2 h and then media was changed for one containing GCV or DMSO as a solvent control. RNA samples were collected at 48 hpi. RT-qPCR was performed using UL99-specific primers. GAPDH was used as an internal control. Data were averaged from at least three experiments and are presented as a fold change mean (SD).
as §1
as §2, with “(Qiagen).” for “(Qiagen). To fractionate RNA, DNA and proteins chloroform was added; samples were spun at 12,000×g for 15 min. at 4° C.”
as §3

Molecule | extracellular HCMV viral particles, % of those produced by control cells treated with NT-LNA (HCMV (TB40-epi)) | intracellular HCMV viral particles, % of those produced by control cells treated with NT-LNA (HCMV (TB40-epi)) | also measured
HSATII-LNA #1: locked nucleic acid oligonucleotide targeting HSATII transcripts, 5′-CCATTCGATAATTCCG-3′ (locked nucleic acid oligonucleotide, LNA positions and linkages not given here) | ~6% | ~33% | 
C[C@@H]1C[C@@H]([C@H](O)CC2CC(=O)NC(=O)C2)C(=O)[C@@H](C)C1 [Cycloheximide] |  |  | reduction of HSATII accumulation compared to solvent control (HSATII; HFFs treated with CHX 24 h before HCMV (TB40/E-GFP) infection at 1 TCID50/cell, 24 hpi): 33 fold
HSATII-LNA #2: locked nucleic acid oligonucleotide targeting HSATII transcripts, 5′-GATTCCATTCGATGAT-3′ (locked nucleic acid oligonucleotide, LNA positions and linkages not given here) | 6% | 23% | 
Nc1nc(O)c2ncn(COC(CO)CO)c2n1 [ganciclovir] |  |  | accumulation of RNA from the late UL99 gene (UL99): blocked; HSATII levels (HSATII; 24 hpi): did not change; HSATII levels (HSATII; 48 hpi): did not change
